Measurements taken from patent publication US7582068B2, “Occlusion resistant hydrocephalic shunt” (Medtronic, Inc., priority 2004, dated 2009).

System: tissue in-growth of the catheter lumen
Test: Tissue in-growth scoring of catheters explanted from rats after 3 months (SEM)
Assay type: in vivo, rat
Conditions: peritoneal and ventricular catheters in rats, MPA compared to drug-free control, dual drug compared to single drug loading
Protocol: Micophenolic acid (MPA) was loaded into ventricular and peritoneal catheter, design of which is described in the example 16. MPA was loaded into ventricular catheter by solvent impregnation using 50 mg/ml MPA in THF followed by drug loading into a silicone plug with 10 wt % drug concentration. Peritoneal sample was loaded by solvent impregnation using 12.5 mg/ml MPA solution in THF followed by drug loading into a plug using 2.5 mg/ml MPA in silicone rubber. Samples were implanted into rat such that the ventricular sample was placed in a lateral ventricle of the rat and the peritoneal samples was implanted into rat peritoneal cavity. In total 6 ventricular and 6 peritoneal samples were implanted into 6 rats. 12 drug-free catheters of the same configuration were implanted in the other 6 rats as controls. After 3 months samples were explanted and the tissue in-growth was scored between 1 and 5 on a basis of SEM photographs of longitudinally split catheters. […]
Ventricular and peritoneal samples were loaded with RAPA and MPA according to the following procedure: catheters were impregnated with 50 mg/ml of MPA solution in THF followed by plugging with 5 wt % RAPA in silicone Samples were implanted in rats and analyzed as described in the Example 17.

## COc1c(C)c2c(c(O)c1C/C=C(\C)CCC(=O)O)C(=O)OC2 [MPA, Mycophenolic acid]
  Effect on tissue proliferation (in words): decrease of tissue proliferation
